Assays:
Test in all cases: relative viability (nuclei count vs DMSO), 5 days (fraction); higher = more cells survive
NCI-H358 = system: NCI-H358
Outline: (§1)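 Medians of duplicate plates are given as relative viability. That measure is the nuclei count in treated wells divided by the count in vehicle wells. Counts were taken on 4× images of lung cancer cell lines in 1536-well plates, 5 days after pin-tool dosing the day after seeding with one drug alone or a fixed anchor-drug dose plus five library-drug doses (not always all listed) in √10 steps.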

LOU-NH91 = system: LOU-NH91
Outline: as §1

EKVX = system: EKVX
Outline: as §1

NCI-H838 = system: NCI-H838
Outline: as §1

NCI-H1395 = system: NCI-H1395
Outline: as §1

NCI-H2085 = system: NCI-H2085
Outline: as §1

HCC-44 = system: HCC-44
Outline: as §1

NCI-H1734 = system: NCI-H1734
Outline: as §1

NCI-H1975 = system: NCI-H1975
Outline: as §1

BEN = system: BEN
Outline: as §1

NCI-H1355 = system: NCI-H1355
Outline: as §1

CAL-12T = system: CAL-12T
Outline: as §1

LU99A = system: LU99A
Outline: as §1

NCI-H2023 = system: NCI-H2023
Outline: as §1

NCI-H1437 = system: NCI-H1437
Outline: as §1

NCI-H1651 = system: NCI-H1651
Outline: as §1

NCI-H441 = system: NCI-H441
Outline: as §1

NCI-H1563 = system: NCI-H1563
Outline: as §1

NCI-H460 = system: NCI-H460
Outline: as §1

HCC-366 = system: HCC-366
Outline: as §1

NCI-H1755 = system: NCI-H1755
Outline: as §1

C=C1C(=O)O[C@@H](CCCCCCCC)[C@@H]1C(=O)O [C-75] + Cc1nc(NC(=O)N2CCC[C@H]2C(N)=O)sc1-c1ccnc(C(C)(C)C(F)(F)F)c1 [Alpelisib] (partner 2 µM)
relative viability (NCI-H358; first compound 0.08 µM): 0.851 | relative viability (NCI-H358; first compound 0.253 µM): 0.735 | relative viability (NCI-H358; first compound 0.8 µM): 0.789 | relative viability (NCI-H358; first compound 2.53 µM): 0.859 | relative viability (NCI-H358; first compound 8 µM): 0.808 | relative viability (LOU-NH91; first compound 0.08 µM): 0.771 | relative viability (LOU-NH91; first compound 0.253 µM): 0.643 | relative viability (LOU-NH91; first compound 0.8 µM): 0.719 | relative viability (LOU-NH91; first compound 2.53 µM): 0.744 | relative viability (LOU-NH91; first compound 8 µM): 0.723 | relative viability (EKVX; first compound 0.08 µM): 0.885 | relative viability (EKVX; first compound 0.253 µM): 0.863 | relative viability (EKVX; first compound 0.8 µM): 0.913 | relative viability (EKVX; first compound 2.53 µM): 0.583 | relative viability (EKVX; first compound 8 µM): 0.969 | relative viability (NCI-H838; first compound 0.08 µM): 0.949 | relative viability (NCI-H838; first compound 0.253 µM): 0.675 | relative viability (NCI-H838; first compound 0.8 µM): 0.928 | relative viability (NCI-H838; first compound 2.53 µM): 0.79 | relative viability (NCI-H838; first compound 8 µM): 0.919 | relative viability (NCI-H1395; first compound 0.08 µM): 1.05 | relative viability (NCI-H1395; first compound 0.253 µM): 1.13 | relative viability (NCI-H1395; first compound 0.8 µM): 1.07 | relative viability (NCI-H1395; first compound 2.53 µM): 0.868 | relative viability (NCI-H1395; first compound 8 µM): 1.28 | relative viability (NCI-H2085; first compound 0.08 µM): 0.974 | relative viability (NCI-H2085; first compound 0.253 µM): 1.1 | relative viability (NCI-H2085; first compound 0.8 µM): 0.957 | relative viability (NCI-H2085; first compound 2.53 µM): 0.89 | relative viability (NCI-H2085; first compound 8 µM): 0.898 | relative viability (HCC-44; first compound 0.08 µM): 0.742 | relative viability (HCC-44; first compound 0.253 µM): 0.674 | relative viability (HCC-44; first compound 0.8 µM): 0.719 | relative viability (HCC-44; first compound 2.53 µM): 0.614 | relative viability (HCC-44; first compound 8 µM): 0.719 | relative viability (NCI-H1734; first compound 0.08 µM): 0.691 | relative viability (NCI-H1734; first compound 0.253 µM): 0.609 | relative viability (NCI-H1734; first compound 0.8 µM): 0.69 | relative viability (NCI-H1734; first compound 2.53 µM): 0.447 | relative viability (NCI-H1734; first compound 8 µM): 0.631 | relative viability (NCI-H1975; first compound 0.08 µM): 0.657 | relative viability (NCI-H1975; first compound 0.253 µM): 0.675 | relative viability (NCI-H1975; first compound 0.8 µM): 0.698 | relative viability (NCI-H1975; first compound 2.53 µM): 0.61 | relative viability (NCI-H1975; first compound 8 µM): 0.66 | relative viability (BEN; first compound 0.08 µM): 0.983 | relative viability (BEN; first compound 0.253 µM): 1.15 | relative viability (BEN; first compound 0.8 µM): 0.953 | relative viability (BEN; first compound 2.53 µM): 0.926 | relative viability (BEN; first compound 8 µM): 0.91 | relative viability (NCI-H1355; first compound 0.08 µM): 0.815 | relative viability (NCI-H1355; first compound 0.253 µM): 0.825 | relative viability (NCI-H1355; first compound 0.8 µM): 0.825 | relative viability (NCI-H1355; first compound 2.53 µM): 0.835 | relative viability (NCI-H1355; first compound 8 µM): 0.886 | relative viability (CAL-12T; first compound 0.08 µM): 1.19 | relative viability (CAL-12T; first compound 0.253 µM): 1.47 | relative viability (CAL-12T; first compound 0.8 µM): 1.12 | relative viability (CAL-12T; first compound 8 µM): 1.33 | relative viability (LU99A; first compound 0.08 µM): 0.537 | relative viability (LU99A; first compound 0.253 µM): 0.547 | relative viability (LU99A; first compound 0.8 µM): 0.516 | relative viability (LU99A; first compound 2.53 µM): 0.483 | relative viability (LU99A; first compound 8 µM): 0.389 | relative viability (NCI-H2023; first compound 0.08 µM): 0.637 | relative viability (NCI-H2023; first compound 0.253 µM): 0.715 | relative viability (NCI-H2023; first compound 0.8 µM): 0.592 | relative viability (NCI-H2023; first compound 2.53 µM): 0.419 | relative viability (NCI-H2023; first compound 8 µM): 0.543 | relative viability (NCI-H1437; first compound 0.08 µM): 0.942 | relative viability (NCI-H1437; first compound 0.253 µM): 0.969 | relative viability (NCI-H1437; first compound 0.8 µM): 1.01 | relative viability (NCI-H1437; first compound 2.53 µM): 0.961 | relative viability (NCI-H1437; first compound 8 µM): 1.07 | relative viability (NCI-H1651; first compound 0.08 µM): 0.871 | relative viability (NCI-H1651; first compound 0.253 µM): 0.988 | relative viability (NCI-H1651; first compound 0.8 µM): 1.02 | relative viability (NCI-H1651; first compound 2.53 µM): 0.793 | relative viability (NCI-H1651; first compound 8 µM): 0.882 | relative viability (NCI-H441; first compound 0.08 µM): 0.762 | relative viability (NCI-H441; first compound 0.253 µM): 0.734 | relative viability (NCI-H441; first compound 0.8 µM): 0.577 | relative viability (NCI-H441; first compound 2.53 µM): 0.589 | relative viability (NCI-H441; first compound 8 µM): 0.602 | relative viability (NCI-H1563; first compound 0.08 µM): 0.939 | relative viability (NCI-H1563; first compound 0.253 µM): 0.969 | relative viability (NCI-H1563; first compound 0.8 µM): 0.886 | relative viability (NCI-H1563; first compound 2.53 µM): 0.974 | relative viability (NCI-H1563; first compound 8 µM): 0.901 | relative viability (NCI-H460; first compound 0.08 µM): 0.517 | relative viability (NCI-H460; first compound 0.253 µM): 0.485 | relative viability (NCI-H460; first compound 0.8 µM): 0.475 | relative viability (NCI-H460; first compound 8 µM): 0.374 | relative viability (HCC-366; first compound 0.08 µM): 0.502 | relative viability (HCC-366; first compound 0.253 µM): 0.48 | relative viability (HCC-366; first compound 0.8 µM): 0.381 | relative viability (HCC-366; first compound 8 µM): 0.404 | relative viability (NCI-H1755; first compound 0.08 µM): 0.938 | relative viability (NCI-H1755; first compound 0.253 µM): 0.823 | relative viability (NCI-H1755; first compound 0.8 µM): 0.913 | relative viability (NCI-H1755; first compound 2.53 µM): 0.739 | relative viability (NCI-H1755; first compound 8 µM): 0.919

Reference: the supplement of paper PMC10307832
